According to ChEMBL document CHEMBL1136942, “Optimization of 5-phenyl-3-pyridinecarbonitriles as PKCtheta inhibitors” (Bioorg Med Chem Lett, 2009):
pIC50: −log10 of the molar value. In brackets after ≈: the same amount, converted by molar mass.

Key:
[1] = target: Protein kinase C delta type (Homo sapiens, UniProt Q05655); assay: Inhibition of human PKCdelta by IMAP assay
[2] = target: Protein kinase C theta type (Homo sapiens, UniProt Q04759); assay: Inhibition of human PKCtheta by IMAP assay
[3] = Solubility at pH 7.4; assay type: physicochemical; conditions: buffer
[4] = target: Protein kinase C beta type (Homo sapiens, UniProt P05771); assay: Inhibition of human PKCbeta by IMAP assay
[5] = Metabolic stability in rat liver microsomes assessed as half life; assay type: ADME, Microsome
[6] = Inhibition of IKK
[7] = target: T1, Protein kinase C epsilon type (Homo sapiens, UniProt Q02156); assay: Inhibition of human PKCepsilon by IMAP assay
T1 sequence (Q02156 whole entry): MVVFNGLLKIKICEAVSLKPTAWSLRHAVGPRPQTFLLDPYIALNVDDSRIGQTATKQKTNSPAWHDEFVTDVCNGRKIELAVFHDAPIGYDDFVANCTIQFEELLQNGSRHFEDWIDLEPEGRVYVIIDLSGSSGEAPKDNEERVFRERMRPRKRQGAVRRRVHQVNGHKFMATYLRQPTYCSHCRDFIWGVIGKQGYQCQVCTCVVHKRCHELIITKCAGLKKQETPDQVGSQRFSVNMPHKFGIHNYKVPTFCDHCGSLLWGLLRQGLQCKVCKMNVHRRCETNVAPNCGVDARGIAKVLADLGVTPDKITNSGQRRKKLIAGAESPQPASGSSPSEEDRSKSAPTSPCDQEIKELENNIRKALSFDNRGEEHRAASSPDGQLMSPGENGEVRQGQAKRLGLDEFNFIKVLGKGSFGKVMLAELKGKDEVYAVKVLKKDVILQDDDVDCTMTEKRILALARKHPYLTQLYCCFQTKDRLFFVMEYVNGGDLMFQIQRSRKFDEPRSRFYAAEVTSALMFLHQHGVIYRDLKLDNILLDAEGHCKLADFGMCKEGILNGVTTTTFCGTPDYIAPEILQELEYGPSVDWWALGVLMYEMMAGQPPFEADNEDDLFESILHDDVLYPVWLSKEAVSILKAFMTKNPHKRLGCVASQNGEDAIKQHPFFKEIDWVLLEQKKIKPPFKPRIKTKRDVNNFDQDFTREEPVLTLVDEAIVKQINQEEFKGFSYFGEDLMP

[8] = Metabolic stability in human liver microsomes assessed as half life; assay type: ADME, Microsome
[9] = Inhibition of p38
[10] = target: Tyrosine-protein kinase Lck (Homo sapiens, UniProt P06239); assay: Inhibition of Lck
[11] = Metabolic stability in monkey liver microsomes assessed as half life; assay type: ADME, Macaca mulatta, Microsome; conditions: rhesus monkey
[12] = Metabolic stability in mouse liver microsomes assessed as half life; assay type: ADME, Microsome
[13] = Membrane permeability by PAMPA; assay type: ADME; conditions: read-out: permeability
[14] = target: Protein kinase C eta type (Homo sapiens, UniProt P24723); assay: Inhibition of human PKCeta by IMAP assay
[15] = Metabolic stability in dog liver microsomes assessed as half life; assay type: ADME, Canis lupus familiaris, Microsome
[16] = target: MAP kinase-activated protein kinase 2 (Homo sapiens, UniProt P49137); assay: Inhibition of MK2
T-cell [17] = assay: Blockade of anti-CD3 and anti-CD28 antibody-induced IL2 expression in PKC theta knockout mouse T cells after 20 to 24 hrs by ELISA; assay type: functional, cell-based
T-cell [18] = assay: Blockade of anti-CD3 and anti-CD28 antibody-induced IL2 expression in wild type C57BL/6 mouse T cells after 20 to 24 hrs by ELISA; assay type: functional, cell-based; conditions: C57BL/6, T-cell
[19] = target: Rho-associated protein kinase 1 (Homo sapiens, UniProt Q13464); assay: Inhibition of ROCK1
[20] = target: T2, Protein kinase C zeta type (Homo sapiens, UniProt Q05513); assay: Inhibition of human PKCzeta by IMAP assay
T2 sequence (Q05513 whole entry): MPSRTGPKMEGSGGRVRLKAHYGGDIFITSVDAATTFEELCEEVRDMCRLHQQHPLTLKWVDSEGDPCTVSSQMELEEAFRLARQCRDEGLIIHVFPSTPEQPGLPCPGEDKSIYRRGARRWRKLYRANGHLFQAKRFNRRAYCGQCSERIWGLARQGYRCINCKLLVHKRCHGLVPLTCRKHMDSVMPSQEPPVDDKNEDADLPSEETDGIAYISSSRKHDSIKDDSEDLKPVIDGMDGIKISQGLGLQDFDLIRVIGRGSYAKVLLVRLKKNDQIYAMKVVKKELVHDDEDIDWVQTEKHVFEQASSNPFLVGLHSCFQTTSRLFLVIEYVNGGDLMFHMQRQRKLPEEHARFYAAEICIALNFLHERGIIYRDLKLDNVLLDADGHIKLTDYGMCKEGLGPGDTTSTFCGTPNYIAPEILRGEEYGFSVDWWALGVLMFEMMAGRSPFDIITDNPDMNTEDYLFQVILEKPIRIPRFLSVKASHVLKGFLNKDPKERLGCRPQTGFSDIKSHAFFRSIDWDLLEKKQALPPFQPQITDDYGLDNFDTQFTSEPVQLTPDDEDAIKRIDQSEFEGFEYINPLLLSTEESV

[21] = target: Tyrosine-protein kinase Lyn (Homo sapiens, UniProt P07948); assay: Inhibition of Lyn
[22] = Inhibition of PDGFR

Sequence of Protein kinase C delta type (Q05655 whole entry): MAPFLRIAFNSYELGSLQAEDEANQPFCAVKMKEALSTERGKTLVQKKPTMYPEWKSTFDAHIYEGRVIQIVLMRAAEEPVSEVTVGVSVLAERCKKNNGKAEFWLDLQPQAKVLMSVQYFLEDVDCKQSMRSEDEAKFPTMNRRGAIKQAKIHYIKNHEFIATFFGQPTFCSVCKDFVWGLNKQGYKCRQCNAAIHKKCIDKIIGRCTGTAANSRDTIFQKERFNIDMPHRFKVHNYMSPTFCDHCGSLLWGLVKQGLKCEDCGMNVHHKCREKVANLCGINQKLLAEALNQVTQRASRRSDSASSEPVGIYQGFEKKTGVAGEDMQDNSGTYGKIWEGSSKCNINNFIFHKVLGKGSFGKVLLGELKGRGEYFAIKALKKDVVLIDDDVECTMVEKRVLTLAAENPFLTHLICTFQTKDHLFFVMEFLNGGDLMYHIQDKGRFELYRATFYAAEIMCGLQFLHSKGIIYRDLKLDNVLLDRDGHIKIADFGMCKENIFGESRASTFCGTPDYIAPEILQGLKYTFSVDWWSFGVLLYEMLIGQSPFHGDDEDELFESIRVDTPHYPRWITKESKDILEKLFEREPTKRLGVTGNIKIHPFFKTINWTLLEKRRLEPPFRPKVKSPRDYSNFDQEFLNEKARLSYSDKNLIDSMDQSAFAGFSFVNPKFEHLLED
Sequence of Protein kinase C theta type (Q04759 whole entry): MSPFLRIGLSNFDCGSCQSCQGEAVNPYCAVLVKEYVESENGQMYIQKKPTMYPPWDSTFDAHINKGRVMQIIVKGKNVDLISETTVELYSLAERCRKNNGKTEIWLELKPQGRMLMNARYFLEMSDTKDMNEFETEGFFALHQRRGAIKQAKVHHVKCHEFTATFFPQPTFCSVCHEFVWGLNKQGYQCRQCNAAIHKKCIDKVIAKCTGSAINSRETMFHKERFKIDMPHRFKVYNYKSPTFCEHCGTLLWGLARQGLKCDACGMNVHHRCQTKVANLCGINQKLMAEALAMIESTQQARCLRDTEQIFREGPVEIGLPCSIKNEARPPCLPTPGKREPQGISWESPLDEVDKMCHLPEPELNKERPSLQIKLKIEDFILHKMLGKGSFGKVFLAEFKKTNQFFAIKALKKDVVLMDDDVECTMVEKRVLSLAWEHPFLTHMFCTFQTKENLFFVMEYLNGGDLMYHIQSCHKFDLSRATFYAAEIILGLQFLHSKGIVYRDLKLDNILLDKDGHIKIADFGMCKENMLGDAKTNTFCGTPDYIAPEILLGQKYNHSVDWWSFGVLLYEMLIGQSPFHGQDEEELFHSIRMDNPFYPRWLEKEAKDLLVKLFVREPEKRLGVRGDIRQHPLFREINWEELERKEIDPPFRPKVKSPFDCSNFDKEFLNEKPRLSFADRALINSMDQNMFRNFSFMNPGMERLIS
Sequence of Protein kinase C beta type (P05771 whole entry): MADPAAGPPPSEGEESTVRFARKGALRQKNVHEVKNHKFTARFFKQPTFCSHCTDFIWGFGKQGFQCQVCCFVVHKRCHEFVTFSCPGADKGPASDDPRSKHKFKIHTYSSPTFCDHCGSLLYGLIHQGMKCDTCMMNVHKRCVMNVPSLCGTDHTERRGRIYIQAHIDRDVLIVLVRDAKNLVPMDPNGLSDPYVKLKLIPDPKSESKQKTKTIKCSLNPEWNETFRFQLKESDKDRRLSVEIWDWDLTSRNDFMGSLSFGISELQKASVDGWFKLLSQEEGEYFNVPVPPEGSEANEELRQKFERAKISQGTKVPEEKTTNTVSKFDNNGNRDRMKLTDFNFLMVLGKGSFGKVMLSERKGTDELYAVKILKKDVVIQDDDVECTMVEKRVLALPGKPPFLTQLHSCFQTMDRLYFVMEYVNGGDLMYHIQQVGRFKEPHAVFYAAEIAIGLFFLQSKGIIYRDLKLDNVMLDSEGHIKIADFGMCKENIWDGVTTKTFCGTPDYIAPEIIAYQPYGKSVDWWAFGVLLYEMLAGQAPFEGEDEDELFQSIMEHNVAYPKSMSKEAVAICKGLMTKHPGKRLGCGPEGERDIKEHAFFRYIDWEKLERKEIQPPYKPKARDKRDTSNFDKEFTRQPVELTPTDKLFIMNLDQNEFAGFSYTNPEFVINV
Sequence of Protein kinase C eta type (P24723 whole entry): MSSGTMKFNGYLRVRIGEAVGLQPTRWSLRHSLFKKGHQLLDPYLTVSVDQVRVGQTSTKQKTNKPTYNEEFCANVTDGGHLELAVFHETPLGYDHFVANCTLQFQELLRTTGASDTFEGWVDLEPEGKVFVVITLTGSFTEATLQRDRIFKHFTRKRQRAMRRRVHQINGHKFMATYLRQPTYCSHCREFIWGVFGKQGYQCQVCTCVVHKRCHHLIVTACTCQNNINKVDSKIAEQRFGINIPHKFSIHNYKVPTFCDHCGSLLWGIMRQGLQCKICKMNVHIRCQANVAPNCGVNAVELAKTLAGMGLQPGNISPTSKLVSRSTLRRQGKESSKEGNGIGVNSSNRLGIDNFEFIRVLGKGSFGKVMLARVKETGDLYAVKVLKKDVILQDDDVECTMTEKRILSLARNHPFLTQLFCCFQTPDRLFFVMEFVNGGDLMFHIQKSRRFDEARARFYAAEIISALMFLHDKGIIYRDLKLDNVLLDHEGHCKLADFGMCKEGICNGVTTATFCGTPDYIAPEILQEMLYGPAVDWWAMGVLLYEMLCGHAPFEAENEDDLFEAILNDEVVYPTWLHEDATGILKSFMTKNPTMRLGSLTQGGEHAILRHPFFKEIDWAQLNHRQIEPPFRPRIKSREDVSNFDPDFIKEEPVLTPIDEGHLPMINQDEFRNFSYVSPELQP
Sequence of Tyrosine-protein kinase Lck (P06239 whole entry): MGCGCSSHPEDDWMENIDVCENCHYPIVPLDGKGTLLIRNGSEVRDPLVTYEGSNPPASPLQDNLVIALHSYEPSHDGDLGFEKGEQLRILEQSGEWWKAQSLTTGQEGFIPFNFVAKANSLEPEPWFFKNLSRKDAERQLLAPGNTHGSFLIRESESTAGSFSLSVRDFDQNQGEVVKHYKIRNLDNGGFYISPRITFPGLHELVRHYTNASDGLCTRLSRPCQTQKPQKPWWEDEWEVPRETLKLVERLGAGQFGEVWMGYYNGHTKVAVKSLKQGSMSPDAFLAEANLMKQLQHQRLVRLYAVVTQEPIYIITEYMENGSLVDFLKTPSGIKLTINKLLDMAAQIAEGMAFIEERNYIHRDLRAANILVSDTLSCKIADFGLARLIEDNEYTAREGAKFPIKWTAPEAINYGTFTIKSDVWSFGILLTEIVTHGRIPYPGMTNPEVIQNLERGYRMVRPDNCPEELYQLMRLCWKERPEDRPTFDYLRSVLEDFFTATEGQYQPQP
Sequence of Tyrosine-protein kinase Lyn (P07948 whole entry): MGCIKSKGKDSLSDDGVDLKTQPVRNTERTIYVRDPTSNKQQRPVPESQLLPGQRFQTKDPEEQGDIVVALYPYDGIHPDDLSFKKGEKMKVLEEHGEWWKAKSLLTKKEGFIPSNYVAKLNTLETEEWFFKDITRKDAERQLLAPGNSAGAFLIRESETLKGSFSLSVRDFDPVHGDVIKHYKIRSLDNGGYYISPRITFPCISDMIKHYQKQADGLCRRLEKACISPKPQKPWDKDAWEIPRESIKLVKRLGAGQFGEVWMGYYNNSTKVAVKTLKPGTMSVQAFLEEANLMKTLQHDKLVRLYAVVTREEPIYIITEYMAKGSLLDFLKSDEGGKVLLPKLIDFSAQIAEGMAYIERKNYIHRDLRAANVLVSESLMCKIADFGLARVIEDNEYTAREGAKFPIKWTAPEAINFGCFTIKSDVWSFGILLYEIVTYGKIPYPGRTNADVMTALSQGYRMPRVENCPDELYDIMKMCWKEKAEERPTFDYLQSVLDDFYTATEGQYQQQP
Sequence of MAP kinase-activated protein kinase 2 (P49137 whole entry): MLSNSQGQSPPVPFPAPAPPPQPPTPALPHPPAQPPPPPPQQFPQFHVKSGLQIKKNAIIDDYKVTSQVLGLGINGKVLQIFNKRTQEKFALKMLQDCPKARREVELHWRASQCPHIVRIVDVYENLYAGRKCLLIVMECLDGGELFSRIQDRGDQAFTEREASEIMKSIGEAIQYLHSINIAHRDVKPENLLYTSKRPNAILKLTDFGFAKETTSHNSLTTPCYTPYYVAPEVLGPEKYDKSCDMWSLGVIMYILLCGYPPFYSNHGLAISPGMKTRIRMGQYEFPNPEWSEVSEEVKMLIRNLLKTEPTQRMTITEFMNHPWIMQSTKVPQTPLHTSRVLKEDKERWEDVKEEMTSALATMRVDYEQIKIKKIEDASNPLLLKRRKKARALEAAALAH

Row | pIC50 [1] | pIC50 [2] | SMILES | further results
1 | 7.20 |  | Cc1c(Nc2c(C#N)cncc2-c2ccccc2)ccc2[nH]ccc12 | 
2 | 5.85 | 6.59 | COc1ccc(-c2cncc(C#N)c2Nc2ccc3c(ccn3C)c2C)cc1OC | 
3 |  | 5.77 | COc1ccc(-c2cncc(C#N)c2Oc2ccc3[nH]ccc3c2)cc1OC | 
4 | 6.01 | 7.26 | CCc1c(Nc2c(C#N)cncc2-c2ccc(OC)c(OC)c2)ccc2[nH]ccc12 | 
5 | 6.47 |  | COc1ccccc1-c1cncc(C#N)c1Nc1ccc2[nH]ccc2c1C | 
6 | 7.16 | 8.28 | COc1ccc(-c2cncc(C#N)c2Nc2ccc3[nH]ccc3c2F)cc1OC | 
7 | 6.55 | 7.98 | COc1ccc(-c2cncc(C#N)c2Nc2cc3cc[nH]c3cc2C)cc1OC | 
8 | 6.46 |  | COc1ccc(-c2cncc(C#N)c2Nc2ccc3[nH]ccc3c2OC)cc1OC | 
9 | 6.96 |  | Cc1c(Nc2c(C#N)cncc2-c2ccc(OCCCN3CCN(C)CC3)cc2)ccc2[nH]ccc12 | 
10 |  | 6.92 | COc1ccc(-c2cncc(C#N)c2Nc2cc(C)c3[nH]ccc3c2)cc1OC | 
11 | 6.68 |  | COc1cccc(-c2cncc(C#N)c2Nc2ccc3[nH]ccc3c2C)c1 | 
12 | 7.74 | 8.23 | Cc1c(Nc2c(C#N)cncc2-c2ccc(OCCNCCN(C)C)cc2)ccc2[nH]ccc12 | 
13 | 7.52 |  | Cc1c(Nc2c(C#N)cncc2-c2ccc(OCCN3CCC(N4CCCC4)CC3)cc2)ccc2[nH]ccc12 | 
14 | 7.29 | 8.13 | Cc1c(Nc2c(C#N)cncc2-c2ccc(OCCN3CCN(C)CC3)cc2)ccc2[nH]ccc12 | solubility [3]: 67 µg/mL (≈ 144 µM); pIC50 [4]: 4.66; half-life [5]: < 15 min; pIC50 [6]: < 5.00; pIC50 [7]: 7.27; half-life [8]: < 15 min; pIC50 [9]: < 5.00; pIC50 [10]: < 5.00; half-life [11]: < 15 min; half-life [12]: < 15 min; Papp [13]: 0.28 ×10⁻⁶ cm/s; pIC50 [14]: 6.35; half-life [15]: < 15 min; pIC50 [16]: < 5.00; pIC50 (T-cell [17]): < 4.82; pIC50 (T-cell [18]): 6.80; pIC50 [19]: < 5.00; pIC50 [20]: < 4.00; pIC50 [21]: < 5.00; pIC50 [22]: < 5.00
15 | 7.07 | 8.25 | COc1ccc(-c2cncc(C#N)c2Nc2ccc3[nH]ccc3c2C)cc1 | 
16 |  | 5.64 | COc1ccc(-c2cncc(C#N)c2Nc2ccc3cc[nH]c3c2)cc1OC | 
17 | 7.55 | 8.35 | Cc1c(Nc2c(C#N)cncc2-c2ccc(OCCN3CCCC3)cc2)ccc2[nH]ccc12 | 
18 | 7.54 |  | Cc1c(Nc2c(C#N)cncc2-c2ccc(OCCN3CCN(CCO)CC3)cc2)ccc2[nH]ccc12 | 
19 |  | 5.77 | COc1ccc(-c2cncc(C#N)c2-c2ccc3[nH]ccc3c2)cc1OC | 
20 | 7.09 | 8.20 | COc1ccc(-c2cncc(C#N)c2Nc2ccc3[nH]ccc3c2C)cc1OC | 
21 | 6.82 |  | Cc1c(Nc2c(C#N)cncc2-c2ccc(OCCN3CCOCC3)cc2)ccc2[nH]ccc12 | 
22 | 6.89 |  | Cc1cc2[nH]ccc2cc1Nc1c(C#N)cncc1-c1ccc(OCCN2CCN(C)CC2)cc1 | 
23 | 7.39 | 7.85 | CN1CCN(CCOc2ccc(-c3cncc(C#N)c3Nc3cccc4[nH]ccc34)cc2)CC1 | 
24 | 5.68 |  | COc1ccc(-c2cncc(C#N)c2N(C)c2ccc3[nH]ccc3c2)cc1OC | 
25 | 6.80 |  | CN1CCN(CCOc2ccc(-c3cncc(C#N)c3Nc3ccc4[nH]ccc4c3)cc2)CC1 | 
26 | 7.21 |  | COc1ccc(-c2cncc(C#N)c2Nc2cccc3[nH]ccc23)cc1OC | 
